In PMC5902452, “In silico optimization of a guava antimicrobial peptide enables combinatorial exploration for peptide design” (Nature Communications, 2018):
Values after ≈ are worked out from the molar mass of the structure shown. Peptide text beside a SMILES is read from it.

What was measured:
[1] = test system: P. aeruginosa H1001 (fliC::luxCDABE); assay type: cell-based, Pseudomonas aeruginosa; settings: SPOT-synthesized unpurified crude peptide (~70% purity); bioluminescent engineered P. aeruginosa; BM2 medium; 4 h, 37 °C; reduction of luminescence; 200 to 3 μg mL−1 tested
Procedure: A peptide array composed of 20 peptides (15 guavanins, 4 Pg-AMP1 fragments, and magainin 2) was designed and synthesized by Kinexus Bioinformatics Corporation (Vancouver, BC). Peptides were produced in a standard mass of 80 μg by using cellulose support in SPOT technology. The crude synthetic peptides were obtained from cellulose membrane discs that had already been treated with ammonia gas to release the peptides from the membrane. Peptides were then dissolved overnight in distilled water and subsequently evaluated for their biological activities, as described below.
The antimicrobial activity of the synthesized peptides was evaluated against an engineered luminescent P. aeruginosa H1001 (fliC::luxCDABE) strain in 96-well microplates. Aqueous solutions of peptides released from the cellulose spots were diluted twofold in BM2 medium [62 mM potassium phosphate buffer pH 7; 2 mM MgSO4; 10 μM FeSO4; 0.4% (wt/vol) glucose] down the eight wells of a 96-well plate, achieving a final volume of 25 μL in each well. Subsequently, 50 μL of overnight culture of P. aeruginosa H1001 (fliC::luxCDABE) were subcultured in 5 mL of fresh LB media and grown until they reached an OD600 of 0.4. This growing bacteria culture was then diluted 4:100 (v/v) into fresh BM2 media and 25 μL of this diluted bacterial culture was transferred to the microplate wells containing 25 μL of peptide solution. The final peptide concentrations tested ranged from 200 to 3 μg mL^−1. The plates were incubated for 4 h at 37 °C with constant shaking at 50 rpm. Luminescence was measured on a Tecan […]luor Plus Microplate Reader (Tecan US, Morrisville, NC). The antimicrobial activity was evaluated by the ability of the peptides to reduce the luminescence of P. aeruginosa-lux strain compared to untreated cells. The AMP magainin 2 and the carbapenem meropenem were used as positive controls and distilled water was used as a negative control.

human erythrocytes = assay: Hemolytic assay; settings: SPOT-synthesized crude peptides; human red blood cells in NaCl 0.85%, 1 h, 37 °C; hemoglobin release at 546 nm; highest concentration 200 μg mL−1; 100% of hemolysis was not observed
Procedure: Fresh human venous blood was collected from volunteers in Vacutainer collection tubes containing sodium heparin as an anticoagulant (BD Biosciences, Franklin Lakes, NJ). The blood was centrifuged applying 151 × g force (1500 rpm) and the serum was removed and the blood cells were replaced and washed three times with the same volume of sterile NaCl 0.85% solution. Concentrated red blood cells were diluted tenfold in NaCl 0.85% solution and then exposed at twofold dilutions of peptides for 1 h at 37 °C, at identical concentrations used for antimicrobial assays, in the ratio of 1:1 (v/v), achieving a final volume of 100 μL. The assay was carried out in 96-well polypropylene microtiter plates. The positive control wells contained 1% of Triton X-100, representing 100% cell lysis, and negative control wells contained sterile saline. Hemoglobin release was monitored chromogenically at 546 nm using a microplate reader.

CC[C@H](C)[C@H](NC(=O)[C@H](CCCNC(=N)N)NC(=O)[C@H](CC(N)=O)NC(=O)[C@H](Cc1ccccc1)NC(=O)[C@H](Cc1ccc(O)cc1)NC(=O)[C@H](CCCNC(=N)N)NC(=O)[C@H](Cc1ccccc1)NC(=O)[C@H](C)NC(=O)[C@H](CCC(=O)O)NC(=O)[C@H](CCC(=O)O)NC(=O)[C@H](Cc1ccc(O)cc1)NC(=O)[C@H](CCSC)NC(=O)[C@H](CCC(=O)O)NC(=O)[C@H](CCSC)NC(=O)[C@H](CC(C)C)NC(=O)[C@H](CCCCN)NC(=O)[C@@H](N)CCCNC(=N)N)C(=O)N[C@@H](CO)C(=O)N[C@@H](CCCNC(=N)N)C(=O)N[C@@H](CCCNC(=N)N)C(N)=O [Guavanin 5] (H-RKLMEMYEEAFRYFNRISRR-NH2)
MIC [1]: 100 µg/mL (≈ 37.1 µM)
Hemolysis (human erythrocytes): > 200 µg/mL

CC[C@H](C)[C@H](NC(=O)[C@H](C)NC(=O)[C@H](CCC(N)=O)NC(=O)[C@H](CCC(=O)O)NC(=O)[C@H](Cc1ccc(O)cc1)NC(=O)[C@H](CC(C)C)NC(=O)[C@H](CCC(=O)O)NC(=O)[C@H](CCSC)NC(=O)[C@H](CC(C)C)NC(=O)[C@H](CCCCN)NC(=O)[C@@H](N)CCCNC(=N)N)C(=O)N[C@@H](CCCNC(=N)N)C(=O)N[C@@H](Cc1ccc(O)cc1)C(=O)NCC(=O)N[C@@H](CCCCN)C(=O)N[C@@H](CCCNC(=N)N)C(=O)N[C@@H](CO)C(=O)N[C@@H](Cc1ccc(O)cc1)C(=O)N[C@@H](CCCNC(=N)N)C(=O)N[C@@H](CCCNC(=N)N)C(N)=O [Guavanin 12] (H-RKLMELYEQAIRYGKRSYRR-NH2)
MIC [1]: 25 µg/mL (≈ 9.56 µM)
Hemolysis (human erythrocytes): > 200 µg/mL

CC(C)C[C@H](NC(=O)[C@H](CCCCN)NC(=O)[C@@H](N)CCCNC(=N)N)C(=O)N[C@H](C(=O)N[C@@H](CCC(=O)O)C(=O)N[C@@H](CS)C(=O)N[C@@H](Cc1ccc(O)cc1)C(=O)N[C@@H](CCC(=O)O)C(=O)N[C@@H](CCCNC(=N)N)C(=O)N[C@@H](C)C(=O)N[C@@H](CCC(=O)O)C(=O)N[C@@H](CCCNC(=N)N)C(=O)N[C@@H](CC(=O)O)C(=O)N[C@@H](C)C(=O)N[C@@H](CC(N)=O)C(=O)N[C@@H](CCCNC(=N)N)C(=O)N[C@@H](CO)C(=O)NCC(=O)N[C@@H](CCCNC(=N)N)C(=O)N[C@@H](CCCNC(=N)N)C(N)=O)C(C)C [Guavanin 15] (H-RKLVECYERAERDANRSGRR-NH2)
MIC [1]: 200 µg/mL (≈ 81.2 µM)
Hemolysis (human erythrocytes): > 200 µg/mL

CSCC[C@H](NC(=O)[C@H](CCCNC(=N)N)NC(=O)[C@H](CO)NC(=O)[C@@H](N)CO)C(=O)N[C@@H](CCC(=O)O)C(=O)N[C@@H](CS)C(=O)N[C@@H](Cc1ccc(O)cc1)C(=O)N[C@@H](CCC(=O)O)C(=O)N[C@@H](CCC(N)=O)C(=O)N[C@@H](C)C(=O)N[C@@H](CCC(=O)O)C(=O)N[C@@H](CCCNC(=N)N)C(=O)N[C@@H](Cc1ccc(O)cc1)C(=O)NCC(=O)N[C@@H](Cc1ccc(O)cc1)C(=O)NCC(=O)NCC(=O)N[C@@H](Cc1ccc(O)cc1)C(=O)NCC(=O)NCC(N)=O [Fragment 1 (α-helix)] (H-SSRMECYEQAERYGYGGYGG-NH2)
MIC [1]: > 200 µg/mL
Hemolysis (human erythrocytes): > 200 µg/mL

CC[C@H](C)[C@H](NC(=O)[C@H](CCCNC(=N)N)NC(=O)[C@H](CCC(=O)O)NC(=O)[C@H](Cc1ccc(O)cc1)NC(=O)[C@H](CCC(N)=O)NC(=O)[C@H](CCCCN)NC(=O)[C@H](CCSC)NC(=O)CNC(=O)[C@H](CCCNC(=N)N)NC(=O)[C@@H](N)CCCNC(=N)N)C(=O)N[C@@H](CO)C(=O)N[C@@H](CCCNC(=N)N)C(=O)N[C@@H](CC(=O)O)C(=O)N[C@@H](C)C(=O)N[C@@H](CC(N)=O)C(=O)N[C@@H](CCCNC(=N)N)C(=O)N[C@@H](CO)C(=O)N[C@@H](Cc1ccc(O)cc1)C(=O)N[C@@H](CCCNC(=N)N)C(=O)N[C@@H](CCCNC(=N)N)C(N)=O [Guavanin 1] (H-RRGMKQYERISRDANRSYRR-NH2)
MIC [1]: 200 µg/mL (≈ 77 µM)
Hemolysis (human erythrocytes): > 200 µg/mL

CSCC[C@H](NC(=O)[C@H](Cc1ccc(O)cc1)NC(=O)[C@H](CCCNC(=N)N)NC(=O)[C@@H](N)CCCNC(=N)N)C(=O)N[C@@H](CCC(=O)O)C(=O)N[C@@H](CS)C(=O)N[C@@H](Cc1ccc(O)cc1)C(=O)N[C@@H](CCC(=O)O)C(=O)N[C@@H](CCC(N)=O)C(=O)N[C@@H](C)C(=O)N[C@@H](CCC(=O)O)C(=O)N[C@@H](CCCNC(=N)N)C(=O)N[C@@H](Cc1ccc(O)cc1)C(=O)N[C@@H](Cc1ccccc1)C(=O)N[C@@H](CCCNC(=N)N)C(=O)N[C@@H](CCCNC(=N)N)C(=O)N[C@@H](Cc1ccccc1)C(=O)NCC(=O)N[C@@H](CCCNC(=N)N)C(=O)N[C@@H](CCCNC(=N)N)C(N)=O [Guavanin 13] (H-RRYMECYEQAERYFRRFGRR-NH2)
MIC [1]: 25 µg/mL (≈ 9.02 µM)
Hemolysis (human erythrocytes): > 200 µg/mL

CC[C@H](C)[C@H](NC(=O)[C@H](CCCNC(=N)N)NC(=O)[C@H](CC(N)=O)NC(=O)CNC(=O)[C@H](Cc1ccc(O)cc1)NC(=O)[C@H](CCCNC(=N)N)NC(=O)[C@H](CO)NC(=O)[C@H](C)NC(=O)[C@H](CCC(N)=O)NC(=O)[C@H](CCC(=O)O)NC(=O)[C@H](Cc1ccc(O)cc1)NC(=O)[C@H](CS)NC(=O)[C@H](CCCCN)NC(=O)[C@H](CCSC)NC(=O)[C@H](Cc1ccccc1)NC(=O)[C@H](CO)NC(=O)[C@@H](N)CCCNC(=N)N)C(=O)N[C@@H](CC(C)C)C(=O)N[C@@H](CCCNC(=N)N)C(=O)N[C@@H](CCCNC(=N)N)C(N)=O [Guavanin 14] (H-RSFMKCYEQASRYGNRILRR-NH2)
MIC [1]: 12.5 µg/mL (≈ 4.93 µM)
Hemolysis (human erythrocytes): > 200 µg/mL

CC[C@H](C)[C@H](NC(=O)[C@H](C)NC(=O)[C@H](CCC(=O)O)NC(=O)[C@H](CCC(=O)O)NC(=O)[C@H](Cc1ccc(O)cc1)NC(=O)[C@H](CCC(N)=O)NC(=O)[C@H](CCCNC(=N)N)NC(=O)[C@H](CCSC)NC(=O)[C@H](Cc1ccc(O)cc1)NC(=O)[C@H](CCCCN)NC(=O)[C@@H](N)CCCNC(=N)N)C(=O)N[C@@H](CCCNC(=N)N)C(=O)N[C@@H](CC(=O)O)C(=O)NCC(=O)N[C@@H](CC(N)=O)C(=O)N[C@@H](CCCNC(=N)N)C(=O)N[C@@H](CO)C(=O)N[C@H](C(=O)N[C@@H](CCCNC(=N)N)C(=O)N[C@@H](CCCNC(=N)N)C(N)=O)[C@@H](C)CC [Guavanin 3] (H-RKYMRQYEEAIRDGNRSIRR-NH2)
MIC [1]: > 200 µg/mL
Hemolysis (human erythrocytes): > 200 µg/mL

CC[C@H](C)[C@H](NC(=O)[C@H](CC(C)C)NC(=O)[C@H](CCC(=O)O)NC(=O)[C@H](CCSC)NC(=O)[C@H](CC(C)C)NC(=O)[C@H](CCC(N)=O)NC(=O)[C@@H](N)CCCNC(=N)N)C(=O)N[C@@H](CCC(=O)O)C(=O)N[C@@H](CCC(N)=O)C(=O)N[C@@H](C)C(=O)N[C@@H](CCC(=O)O)C(=O)N[C@@H](CCCNC(=N)N)C(=O)N[C@@H](Cc1ccc(O)cc1)C(=O)NCC(=O)N[C@@H](CC(N)=O)C(=O)N[C@@H](CCCNC(=N)N)C(=O)N[C@@H](Cc1ccccc1)C(=O)N[C@@H](Cc1ccc(O)cc1)C(=O)N[C@@H](CCCNC(=N)N)C(=O)N[C@@H](CCCNC(=N)N)C(N)=O [Guavanin 11] (H-RQLMELIEQAERYGNRFYRR-NH2)
MIC [1]: > 200 µg/mL
Hemolysis (human erythrocytes): > 200 µg/mL

N=C(N)NCCC[C@H](NC(=O)CNC(=O)[C@H](CO)NC(=O)CNC(=O)[C@H](Cc1ccc(O)cc1)NC(=O)CNC(=O)CNC(=O)CNC(=O)[C@H](Cc1ccc(O)cc1)NC(=O)[C@H](CCCNC(=N)N)NC(=O)CNC(=O)CNC(=O)CNC(=O)[C@H](Cc1ccc(O)cc1)NC(=O)CNC(=O)CNC(=O)[C@H](Cc1ccc(O)cc1)NC(=O)CNC(=O)[C@@H](N)Cc1ccc(O)cc1)C(=O)NCC(N)=O [Fragment 3 (hydrophobicity)] (H-YGYGGYGGGRYGGGYGSGRG-NH2)
MIC [1]: > 200 µg/mL
Hemolysis (human erythrocytes): > 200 µg/mL

CC[C@H](C)[C@H](NC(=O)CN)C(=O)NCC(=O)N[C@@H](CCCCN)C(=O)N[C@@H](Cc1ccccc1)C(=O)N[C@@H](CC(C)C)C(=O)N[C@@H](Cc1c[nH]cn1)C(=O)N[C@@H](CO)C(=O)N[C@@H](C)C(=O)N[C@@H](CCCCN)C(=O)N[C@@H](CCCCN)C(=O)N[C@@H](Cc1ccccc1)C(=O)NCC(=O)N[C@@H](CCCCN)C(=O)N[C@@H](C)C(=O)N[C@@H](Cc1ccccc1)C(=O)N[C@H](C(=O)NCC(=O)N[C@@H](CCC(=O)O)C(=O)N[C@H](C(=O)N[C@@H](CCSC)C(=O)N[C@@H](CC(N)=O)C(=O)N[C@@H](CO)C(N)=O)[C@@H](C)CC)C(C)C [Magainin 2, reference compound] (H-GIGKFLHSAKKFGKAFVGEIMNS-NH2)
MIC [1]: 100 µg/mL (≈ 40.6 µM)
